Experimental data published in patent publication US6486185B1, “3-heteroarylidene-2-indolinone protein kinase inhibitors” (Sugen, Inc., priority 1997, dated 2002).

target: T1, IGF-1R (Homo sapiens, UniProt P08069); assay: IGF-I receptor ELISA in 3T3/IGF-1R cells; assay type: cell-based; details: 50% inhibition of PTK activity over control
T1 construct: expressed in transfected cells; host or cells: NIH3T3 (3T3/IGF-1R)
Experimental: The cellular/catalytic assays described herein are performed in an ELISA format. The general procedure is a follows: a compound is introduced to cells expressing the test kinase, either naturally or recombinantly, for some period of time after which, if the test kinase is a receptor, a ligand known to activate the receptor's activity is added. The cells are lysed and the lysate is transferred to the wells of an ELISA plate previously coated with a specific antibody recognizing the substrate of the enzymatic phosphorylation reaction. Non-substrate components of the cell lysate are washed away and the amount of phosphorylation on the substrate is detected with an antibody specifically recognizing phosphotyrosine compared with control cells that were not contacted with a test compound.
The following protocol may be used to measure phosphotyrosine level on IGF-I receptor, which indicates IGF-I receptor tyrosine kinase activity.
The following materials and reagents are used:
a. The cell line used in this assay is 3T3/IGF-1R, a cell line genetically engineered to overexpresses IGF-1 receptor.
b. NIH3T3/IGF-1R is grown in an incubator with 5% CO2 at 37° C. The growth media is DMEM+10% FBS (heat inactivated)+2 mM L-glutamine.
c. Affinity purified anti-IGF-1R antibody 17-69.
e. Blocking Buffer: TBST plus 5% Milk (Carnation Instant Non-Fat Dry Milk).
Stock solution of TBS (10×) is prepared, and Triton X-100 is added to the buffer during dilution.
Stock solution (5×) is prepared and kept at 4° C.
h. EDTA/HCl: 0.5 M pH 7.0 (NaOH) as 100×stock.
i. Na3VO4: 0.5 M as 100×stock and aliquots are kept in −80° C.
k. Insulin-like growth factor-1 from Promega (Cat# G5111).
l. Rabbit polyclonal anti-phosphotyrosine antiserum.
m. Goat anti-rabbit IgG, POD conjugate (detection antibody), Tago (Cat. No. 4520, Lot No. 1802): Tago, Inc., Burlingame, Calif.
n. ABTS (2,2′-azinobis(3-ethylbenzthiazolinesulfonic acid)) solution:
ABTS solution should be kept in dark and 4° C. The solution should be discarded when it turns green.
o. Hydrogen Peroxide: 30% solution is kept in the dark and at 4° C.
All the following steps are conducted at room temperature unless it is specifically indicated. All ELISA plate washings are performed by rinsing the plate with tap water three times, followed by one TBST rinse. Pat plate dry with paper towels.
1. The cells, grown in tissue culture dish (Corning 25020-100) to 80-90% confluence, are harvested with Trypsin-EDTA (0.25%, 0.5 mL/D-100, GIBCO).
2. Resuspend the cells in fresh DMEM+10% FBS+2 mM L-Glutamine, and transfer to 96-well tissue culture plate (Corning, 25806-96) at 20,000 cells/well (100 μL/well). Incubate for 1 day then replace medium to serum-free medium (90/μL) and incubate in 5% CO2 and 37° C. overnight.
B. ELISA Plate Coating and Blocking:
1. Coat the ELISA plate (Corning 25805-96) with Anti-IGF-1R Antibody at 0.5 μg/well in 100 μL PBS at least 2 hours.
2. Remove the coating solution, and replace with 100 μL Blocking Buffer, and shake for 30 minutes. Remove the blocking buffer and wash the plate just before adding lysate.
1. The drugs are tested in serum-free condition.
2. Dilute drug stock (in 100% DMSO) 1:10 with DMEM in 96-well poly-propylene plate, and transfer 10 μL/well of this solution to the cells to achieve final drug dilution 1:100, and final DMSO concentration of 1.0%. Incubate the cells in 5% CO2 at 37° C. for 2 hours.
3. Prepare fresh cell lysis buffer (HNTG*)
4. After drug incubation for two hours, transfer 10 μL/well of 200 nM IGF-1 Ligand in PBS to the cells (Final Conc.=20 nM), and incubate at 5% CO2 at 37° C. for 10 minutes.
5. Remove media and add 100 μL/well HNTG* and shake for 10 minutes. Look at cells under microscope to see if they are adequately lysed.
6. Use a 12-channel pipette to scrape the cells from the plate, and homogenize the lysate.by repeated aspiration and dispensing. Transfer all the lysate to the antibody coated ELISA plate, and shake for 1 hour.
7. […]

T1 sequence (P08069 31-1367, species assumed): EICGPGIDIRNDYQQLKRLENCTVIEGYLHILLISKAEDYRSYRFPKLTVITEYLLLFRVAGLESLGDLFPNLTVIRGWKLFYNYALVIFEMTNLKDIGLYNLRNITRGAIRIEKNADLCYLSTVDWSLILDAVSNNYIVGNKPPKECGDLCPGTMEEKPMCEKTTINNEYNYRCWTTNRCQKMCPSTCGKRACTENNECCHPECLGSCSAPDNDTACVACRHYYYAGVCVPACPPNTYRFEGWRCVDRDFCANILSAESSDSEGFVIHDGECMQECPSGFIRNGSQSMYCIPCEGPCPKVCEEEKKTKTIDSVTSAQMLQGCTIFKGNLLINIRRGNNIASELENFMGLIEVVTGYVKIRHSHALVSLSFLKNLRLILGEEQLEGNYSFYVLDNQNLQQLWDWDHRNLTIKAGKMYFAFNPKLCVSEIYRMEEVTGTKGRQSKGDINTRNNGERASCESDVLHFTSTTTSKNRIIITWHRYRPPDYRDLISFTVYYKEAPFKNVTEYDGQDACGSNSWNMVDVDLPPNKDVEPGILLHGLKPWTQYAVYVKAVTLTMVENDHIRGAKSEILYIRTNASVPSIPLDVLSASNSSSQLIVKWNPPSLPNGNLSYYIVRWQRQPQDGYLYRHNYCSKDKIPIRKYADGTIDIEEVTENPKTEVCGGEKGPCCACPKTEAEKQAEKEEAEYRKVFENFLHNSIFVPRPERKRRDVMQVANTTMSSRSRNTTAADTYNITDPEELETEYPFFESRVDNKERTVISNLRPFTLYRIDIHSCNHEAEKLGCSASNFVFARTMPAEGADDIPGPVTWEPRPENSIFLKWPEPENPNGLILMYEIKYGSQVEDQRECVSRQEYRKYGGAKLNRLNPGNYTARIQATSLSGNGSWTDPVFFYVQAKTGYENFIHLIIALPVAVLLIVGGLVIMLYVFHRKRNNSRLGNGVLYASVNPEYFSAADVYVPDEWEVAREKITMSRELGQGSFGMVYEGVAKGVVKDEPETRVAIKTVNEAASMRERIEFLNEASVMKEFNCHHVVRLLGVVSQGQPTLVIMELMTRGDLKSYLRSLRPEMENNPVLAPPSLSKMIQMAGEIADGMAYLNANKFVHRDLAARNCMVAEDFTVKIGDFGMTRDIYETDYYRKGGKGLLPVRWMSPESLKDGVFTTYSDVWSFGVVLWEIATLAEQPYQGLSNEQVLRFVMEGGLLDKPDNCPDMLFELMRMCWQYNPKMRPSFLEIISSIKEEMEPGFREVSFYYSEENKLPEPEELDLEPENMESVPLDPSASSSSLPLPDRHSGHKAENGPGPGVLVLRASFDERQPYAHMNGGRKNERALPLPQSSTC

`CCOC(=O)c1c(C)[nH]c(C=C2C(=O)Nc3ccc(NC(=O)c4ccc(C(=O)OC)cc4)cc32)c1C` [3-(2,4-dimethyl-3-ethoxycarbonylpyrrol-5-methylidenyl)-5-(4-methoxycarbonylbenzamido)-2-indolinone] and `CCOC(=O)c1c(C)[nH]c(C=C2C(=O)Nc3ccc(Br)cc32)c1C` [3-(2,4-dimethyl-3-ethoxycarbonylpyrrol-5-methylidenyl)-5-bromo-2-indolinone] cannot be ordered by IC50: over 10 µM for the first, over 100 µM for the second.

`CC(=O)c1[nH]c(C=C2C(=O)Nc3ccccc32)c(C)c1C` [3-(2-acetyl-3,4-dimethylpyrrol-5-methylidenyl)-2-indolinone] and `CCOC(=O)c1[nH]c(C=C2C(=O)Nc3ccccc32)c(C(C)=O)c1C` [3-(4-acetyl-2-ethoxycarbonyl-3-methylpyrrol-5-methylidenyl)-2-indolinone] cannot be ordered by IC50: over 100 µM for the first, over 10 µM for the second.

`COC(=O)Cc1c(Cl)[nH]c(C=C2C(=O)Nc3ccccc32)c1C(=O)OC` [3-(2-chloro-4-methoxycarbonyl-3-methoxycarbonylmethylpyrrol-5-methylidenyl)-2-indolinone] and `COC(=O)CCc1c[nH]c(C=C2C(=O)Nc3ccccc32)c1C` [3-[4-(2-methoxycarbonylethyl-3-methylpyrrol-2-methylidenyl]-2-indolinone] cannot be ordered by IC50: over 50 µM for the first, over 100 µM for the second.

`CCOC(=O)c1c[nH]c(C=C2C(=O)Nc3ccccc32)c1C` [3-(4-ethoxycarbonyl-3-methylpyrrol-2-methylidenyl)-2-indolinone] and `Cc1c[nH]c(C=C2C(=O)Nc3ccccc32)c1CCC(=O)O` [3-[3-(2-carboxyethyl-4-methylpyrrol-2-methylidenyl]-2-indolinone] cannot be ordered by IC50: over 100 µM for the first, over 100 µM for the second.

`CCOC(=O)CCc1c(C(=O)OCC)[nH]c(C=C2C(=O)Nc3ccccc32)c1CC(=O)OCC` [3-[2-ethoxycarbonyl-3-(2-ethoxycarbonylethyl)-4-ethoxycarbonylmethyl)pyrrol-5-methylidenyl)-2-indolinone] and `COC(=O)CCc1c[nH]c(C=C2C(=O)Nc3cc(OC)c(OC)cc32)c1C` [3-[4-(2-methoxycarbonylethyl)-3-methylpyrrol-2-methylidenyl]-5,6-dimethoxy-2-indolinone] cannot be ordered by IC50: over 10 µM for the first, over 50 µM for the second.
